The values that follow come from US20020035061A1, “COMPOSITIONS AND METHODS FOR TREATING INFECTIONS USING CATIONIC PEPTIDES ALONE OR IN COMBINATION WITH ANTIBIOTICS” (priority 1996, published 2002).

Where two headings read alike, the source gives them in different places. Some results are limits rather than exact numbers.

For orientation: MIC means the smallest concentration in the dilution series that meets the test's criterion for growth inhibition.

The test system of assay [1] is E. cloacae. Type of assay: cell-based. The following applies: E. cloacae strain ECL007.
Assay [2] concerns E. coli. Format: cell-based. The following applies: for Peptide MIC values: agarose dilution.
Assay [3] concerns E. faecalis. Type of assay: cell-based.
The test system of assay [4] is E. faecium. Format: cell-based. The following applies: for Peptide MIC values: agarose dilution.
Assay [5] relates to K. pneumoniae. Format: cell-based.
Assay [6] deals with P. aeruginosa. Format: cell-based. The following applies: for Peptide MIC values: agarose dilution.
Assay [7] deals with S. aureus. Type of assay: cell-based. The following applies: for Peptide MIC values: agarose dilution.
The test system of assay [8] is S. marcescens. Type of assay: cell-based. The following applies: for Peptide MIC values: agarose dilution, S. marcescens SM82.
Assay [9] deals with S. pneumoniae. As to the kind of experiment: Agarose dilution assay (MIC). Type of assay: cell-based. The following applies: agarose dilution.
Assay [10] has as its system microorganisms with acquired resistance. As to the kind of experiment: microbe, parasite or virus in culture. The following applies: S. aureus; combination with Mupirocin; in µg/mL. Format: cell-based.
In assay [11] the test system is A. calcoaceticus. Type of assay: cell-based.
The test system of assay [12] is S. epidermidis. Format: cell-based.
The test system of assay [13] is S. maltophilia. Format: cell-based.
The test system of assay [14] is MSSA (Smith, ATCC # 19640). As to the kind of experiment: In vivo efficacy, MSSA infection. On the set-up: species or system S. aureus. The following applies: formulation D, 60 min post-infection, end of eight day observation.

Take ILKKWVWWVWRRK [MBI 11F1CN]: the MIC in assay [1] was above 128 µg/mL; in [2] (E. coli strain ECO003), 8 µg/mL; in assay [3] (E. faecalis strain EFS004), 16 µg/mL; in assay [4] (E. faecium strain EFM003), 2 µg/mL; in assay [5] (K. pneumoniae strain KP002) it was 32 µg/mL; in assay [6] (P. aeruginosa strain PA004) it was 64 µg/mL. Besides, the MIC in assay [7] (S. aureus strain SA009) was 2 µg/mL; in assay [8] (S. marcescens strain SBSM1) it was above 128 µg/mL; in assay [8] (S. marcescens strain SMS003) it was above 128 µg/mL. For the same sequence, the “Peptide MIC values” in assay [2] (E. coli ATCC 25922) was found to be 8 µg/mL; in [2] (E. coli NCTC 10418), 2 µg/mL; in [4] it was 8 µg/mL; in [6] (P. aeruginosa ATCC 27853), 64 µg/mL; in assay [6] (P. aeruginosa NCTC 10662), 64 µg/mL; in assay [7] (S. aureus MRSA9) it was 2 µg/mL. Also, the “Peptide MIC values” is 16 µg/mL in assay [7] (S. aureus MRSA13); 2 µg/mL in [7] (S. aureus MRSA17); above 128 µg/mL in [8]; 128 µg/mL in [9] (S. pneumoniae 406LE8); 128 µg/mL in assay [9] (S. pneumoniae 60120); 64 µg/mL in assay [9] (S. pneumoniae ATCC 49619). Further, the “Peptide MIC” value in [10] is reported as 8.
On to ILWPWWPWRRK [MBI 11B8CN], for which the MIC in assay [11] (A. calcoaceticus strain AC001) was above 128 µg/mL; in [1] it was above 128 µg/mL; in [2] (E. coli strain ECO002), 16 µg/mL; in assay [3] (E. faecalis strain EFS002) it was 32 µg/mL; in assay [4] (E. faecium strain EFM001), 16 µg/mL; in assay [5] (K. pneumoniae strain KP001), above 128 µg/mL. For the same sequence, the minimum inhibitory concentration (MIC) in assay [6] (P. aeruginosa strain PA005) is above 128 µg/mL; in assay [7] (S. aureus strain SA009) it was 4 µg/mL; in assay [12] (S. epidermidis strain SE002), 4 µg/mL; in [13] (S. maltophilia strain SMA002), 128 µg/mL; in [8] (S. marcescens strain SMS003), above 128 µg/mL. The “Peptide MIC values” is 32 µg/mL in assay [2] (E. coli ATCC 25922); 4 µg/mL in [2] (E. coli NCTC 10418); 8 µg/mL in assay [4]; above 128 µg/mL in [6] (P. aeruginosa ATCC 27853); above 128 µg/mL in assay [6] (P. aeruginosa NCTC 10662); 2 µg/mL in assay [7] (S. aureus MRSA9). Moreover, the “Peptide MIC values” in assay [7] (S. aureus MRSA13) was 32 µg/mL; in assay [7] (S. aureus MRSA17) it was 4 µg/mL; in assay [8] it was above 128 µg/mL; in assay [9] (S. pneumoniae 406LE8) it was above 128 µg/mL; in [9] (S. pneumoniae 60120), above 128 µg/mL; in [9] (S. pneumoniae ATCC 49619) it was 128 µg/mL. The entries for the “% Survival” value in assay [14] (12 mg/kg ip) and in assay [14] (18 mg/kg ip) were 0% and 10%, respectively.
Regarding ILRRWPWWPWRRK [MBI 11B1CN], the MIC is 32 µg/mL in assay [11] (A. calcoaceticus strain AC001); above 128 µg/mL in assay [1]; 8 µg/mL in assay [2] (E. coli strain ECO003); 8 µg/mL in [3] (E. faecalis strain EFS004); 2 µg/mL in assay [4] (E. faecium strain EFM002); 64 µg/mL in [5] (K. pneumoniae strain KP002). In addition, the MIC in assay [6] (P. aeruginosa strain PA005) is above 128 µg/mL; in [7] (S. aureus strain SA005), 2 µg/mL; in [12] (S. epidermidis strain SE001) it was 2 µg/mL; in assay [13] (S. maltophilia strain SMA001), 64 µg/mL; in [8] (S. marcescens strain SMS004) it was above 128 µg/mL. In addition, the figures for the “% Survival” value in assay [14] (12 mg/kg ip), in assay [14] (18 mg/kg ip) and in [14] (24 mg/kg ip) were 0%, 30% and 90%, respectively.
Take ILKKWWWPWRRK [MBI 11G4CN]: the minimal inhibitory concentration (MIC) is 4 µg/mL in assay [11] (A. calcoaceticus strain AC002); above 128 µg/mL in [1]; 32 µg/mL in assay [2] (E. coli strain ECO005); 32 µg/mL in assay [3] (E. faecalis strain EFS002); 1 µg/mL in assay [4] (E. faecium strain EFM003); above 128 µg/mL in [5] (K. pneumoniae strain KP001). The MIC in assay [6] (P. aeruginosa strain PA004) was above 128 µg/mL; in assay [7] (S. aureus strain SA004), 1 µg/mL; in assay [12] (S. epidermidis strain SE010), 2 µg/mL; in assay [13] (S. maltophilia strain SMA002), 64 µg/mL; in assay [8] (S. marcescens strain SMS003), above 128 µg/mL. For the same sequence, the “% Survival” value in assay [14] (12 mg/kg ip) turned out to be 0%; in assay [14] (18 mg/kg ip), 0%; in assay [14] (24 mg/kg ip) it was 20%.
IKKWPWWPWRRK [MBI 11G2CN]: the MIC was above 128 µg/mL in assay [1]; 16 µg/mL in [2] (E. coli strain ECO003); 16 µg/mL in assay [3] (E. faecalis strain EFS004); 4 µg/mL in [4] (E. faecium strain EFM002); 128 µg/mL in assay [5] (K. pneumoniae strain KP002); above 128 µg/mL in assay [6] (P. aeruginosa strain PA004). The MIC in [7] (S. aureus strain SA009) is 2 µg/mL; in assay [13] (S. maltophilia strain SMA001) it was above 128 µg/mL; in assay [8] (S. marcescens strain SMS004), above 128 µg/mL. In addition, the “% Survival” value in [14] (12 mg/kg ip) came to 10%; in assay [14] (18 mg/kg ip) it was 0%; in assay [14] (24 mg/kg ip) it was 40%.
In the case of ILKKWPWWPRRK [MBI 11G6CN], the MIC in [11] (A. calcoaceticus strain AC001) was above 128 µg/mL; in [1] it was above 128 µg/mL; in assay [2] (E. coli strain ECO002) it was 32 µg/mL; in assay [3] (E. faecalis strain EFS002), 128 µg/mL; in [4] (E. faecium strain EFM003) it was 4 µg/mL; in [5] (K. pneumoniae strain KP001), above 128 µg/mL. The MIC in [6] (P. aeruginosa strain PA004) is above 128 µg/mL; in [7] (S. aureus strain SA006) it was 2 µg/mL; in assay [12] (S. epidermidis strain SE002), 8 µg/mL; in assay [13] (S. maltophilia strain SMA001) it was above 128 µg/mL; in assay [8] (S. marcescens strain SMS003), above 128 µg/mL.
For the sequence ILKWPWWPWRK [MBI 11B5CN], the minimal inhibitory concentration (MIC) was 4 µg/mL in assay [11] (A. calcoaceticus strain AC002); above 128 µg/mL in assay [1]; 16 µg/mL in assay [2] (E. coli strain ECO005); 2 µg/mL in assay [3] (E. faecalis strain EFS001); 16 µg/mL in assay [3] (E. faecalis strain EFS002); 8 µg/mL in assay [3] (E. faecalis strain EFS008). The MIC was 1 µg/mL in assay [4] (E. faecium strain EFM002); 16 µg/mL in assay [5] (K. pneumoniae strain KP001); above 128 µg/mL in [6] (P. aeruginosa strain PA004); 2 µg/mL in assay [7] (S. aureus strain SA005); 2 µg/mL in [7] (S. aureus strain SA014); 1 µg/mL in assay [7] (S. aureus strain SA093). In addition, the values for the MIC in [12] (S. epidermidis strain SE010), in assay [13] (S. maltophilia strain SMA002) and in assay [8] (S. marcescens strain SMS003) were 1 µg/mL, 64 µg/mL and above 128 µg/mL, respectively.
Take ILKKWPWPWRRK [MBI 11A4CN]: the minimal inhibitory concentration (MIC) was 8 µg/mL in [11] (A. calcoaceticus strain AC002); above 128 µg/mL in [1]; 32 µg/mL in [2] (E. coli strain ECO003); 64 µg/mL in [3] (E. faecalis strain EFS002); 32 µg/mL in [4] (E. faecium strain EFM001); above 128 µg/mL in assay [5] (K. pneumoniae strain KP001). Moreover, the MIC in assay [6] (P. aeruginosa strain PA004) was above 128 µg/mL; in assay [7] (S. aureus strain SA005) it was 2 µg/mL; in [12] (S. epidermidis strain SE002), 8 µg/mL; in assay [13] (S. maltophilia strain SMA002), above 128 µg/mL; in assay [8] (S. marcescens strain SMS004), above 128 µg/mL.
As to ILKKFPFWPWRRK [MBI 11A7CN], the minimal inhibitory concentration (MIC) in [11] (A. calcoaceticus strain AC002) is 4 µg/mL; in assay [1] it was above 128 µg/mL; in assay [2] (E. coli strain ECO005), 8 µg/mL; in assay [3] (E. faecalis strain EFS001) it was 2 µg/mL; in [3] (E. faecalis strain EFS002), 16 µg/mL; in [3] (E. faecalis strain EFS008) it was 4 µg/mL. For the same sequence, the minimal inhibitory concentration (MIC) was 2 µg/mL in assay [4] (E. faecium strain EFM003); 8 µg/mL in assay [5] (K. pneumoniae strain KP001); above 128 µg/mL in assay [6] (P. aeruginosa strain PA004); 2 µg/mL in assay [7] (S. aureus strain SA009); 4 µg/mL in [7] (S. aureus strain SA014); 1 µg/mL in [7] (S. aureus strain SA093). The figures for the MIC in assay [12] (S. epidermidis strain SE010), in [13] (S. maltophilia strain SMA002) and in [8] (S. marcescens strain SMS003) were 4 µg/mL, 64 µg/mL and above 128 µg/mL, respectively.
